Results published in PubChem BioAssay AID489023 (Sanford-Burnham Center for Chemical Genomics, 2010).
Active and inactive are the calls of the source. No rule for the calls is given here.

What follows are compounds tested on 697B cells, BCR-induced NF-kB luciferase reporter luminescence (assay: B-cell receptor NF-kB reporter inhibition – 697B cells, luciferase luminescence, dose response (AID 489023)).

Row | Compound | IC50
1 | COc1ccc(/C=C2\SC(=S)N(CCCC(=O)NNC(=O)c3ccccc3O)C2=O)cc1 | 0.68 µM
2 | COc1ccc(-n2c(-c3ccc(Cl)cc3)c[n+]3c2CCc2ccccc2-3)cc1 | > 80 µM (inactive)
3 | CCN(CC)c1ccc2cc(NC(=O)CCC(=O)O)c(=O)oc2c1 | 1.23 µM
4 | CC(C)(C)c1ccc(-c2nnc(SCC(=O)NC3CC3)o2)cc1 | > 80 µM (inactive)
5 | CSc1ccc(-c2nc(CSCC(=O)NC3CC3)c(C)o2)cc1 | 2.44 µM
6 | COc1ccc(-c2csc3nc(-c4cccnc4)nc(N4CCC(C(N)=O)CC4)c23)cc1OC | 44.2 µM (inactive)
7 | CC(C)(C)c1ccc(-n2ncc3c2CCCC3NC(=O)C2(C(N)=O)CC2)cc1 (stereo not given) | > 80 µM (inactive)
8 | COc1cc(/C=N/Nc2nc(Nc3ccccc3)nc(N3CCOCC3)n2)ccc1OC(=O)c1ccco1 | 5.16 µM
9 | Cc1cc(N(C)C)ccc1N=Nc1ccc(N)cc1 | 61.1 µM (inactive)
10 | CCOc1ccc(-c2cc(CCCC(=O)NCc3ccco3)no2)cc1 | 6.57 µM
11 | COc1ccc(-c2noc(CCCC(=O)O)n2)cc1 | 2.14 µM
12 | Cc1nc(Nc2c(Cl)cccc2Cl)sc1C(=O)Nc1ccccc1 | 50.1 µM (inactive)
13 | N=c1c2c(n(Cc3ccc(Cl)cc3Cl)c3c1CCC3)CCCC2 | 40.3 µM (inactive)
14 | COc1ccc(NS(=O)(=O)c2cc(NC(=O)c3cc(=O)c4ccccc4o3)ccc2OC)cc1 | > 80 µM (inactive)
15 | CCOc1ccc(/C=C2\SC(=S)N(CCC(=O)Nc3ccc(C(=O)O)cc3)C2=O)cc1 | 1.35 µM
16 | Cn1c(=O)cc(SCC(=O)N2CCCC2)c2cc(Cl)ccc21 | > 80 µM (inactive)
17 | Cc1ccc(C)c(-n2nnnc2Sc2nnnn2-c2ccccc2)c1 | 1.32 µM
18 | CCC(C)NC(=O)c1c(N)n(/N=C/c2ccccn2)c2nc3ccccc3nc12 (stereo not given) | 23.2 µM (inactive)
19 | COc1cc(OC)c(/C=N/NC(N)=S)cc1Br | 34.2 µM (inactive)
20 | O=C(CN1C(=O)c2ccccc2S1(=O)=O)N1CCc2ccccc21 | 1.24 µM
21 | CCN(CC(=O)Nc1c(F)cccc1F)C(=O)C1(c2ccccc2)CC1 | 14.4 µM
22 | COc1ccc(-c2ccc(C(C)=O)cc2)cc1[C@H]1[C@H]2C=CC[C@@H](C)[C@@H]2C(=O)N1Cc1ccccc1 | > 80 µM (inactive)
23 | COc1ccccc1/C=C1\SC(=S)N(CCC(=O)Nc2cccc(O)c2)C1=O | > 80 µM (inactive)
24 | O=C(Nc1cccc(Br)c1)c1ccc2c(c1)SC1=NS(=O)(=O)CCN12 | 15.7 µM

Row | Compound | IC50
25 | OCCN1CCN(C(=S)c2ccc(-c3ccccc3)cc2)CC1 | 5.72 µM
26 | CCc1ccc2[nH]c3nc(N/N=C/c4cccc(O)c4)nnc3c2c1 | > 80 µM (inactive)
27 | COc1ccc(/C=C2\SC(=S)N(CCC(=O)Nc3ccc(C(=O)O)cc3)C2=O)cc1 | > 80 µM (inactive)
28 | CCOC(=O)N1CCN(c2ncnc3c2[nH]c2ccc(OC)cc23)CC1 | 60 µM (inactive)
29 | COC(=O)c1c(-c2ccc(N(C)C)cc2)sc2ccc(OC)cc12 | > 80 µM (inactive)
30 | O=C(Nc1nc2c(Br)cc(Br)cc2c(=O)s1)c1ccco1 | 1.8 µM
31 | CCn1c(=O)c2cc(C(=O)NCc3cccs3)sc2c2ccccc21 | > 80 µM (inactive)
32 | Cc1nn(C(C)(C)C)c(OC(=O)c2ccc(Br)o2)c1Sc1ccccc1 | > 80 µM (inactive)
33 | Cc1ccccc1-n1c(SCc2c(C)noc2C)nnc1-c1c[nH]c2ccccc12 | 76.1 µM (inactive)
34 | CC1CCN(c2c(NCc3ccc(C(=O)N4c5ccccc5CC4C)cc3)c(=O)c2=O)CC1 (stereo not given) | > 80 µM (inactive)
35 | CCOC(=O)Cc1csc(NC(=S)NC(=O)c2ccc(Cl)cc2)n1 | 30.6 µM (inactive)
36 | COc1ccc(NC(=O)c2cc(-c3ccccn3)nc3ccccc23)cc1S(=O)(=O)N(C)C | 7.8 µM
37 | Cc1ccc(O)c(NC(=O)COc2cc(C)ccc2C)c1 | > 80 µM (inactive)
38 | CCN(C(=O)CN1C(=O)NC(c2ccccc2)(c2ccc(C)c(C)c2)C1=O)C1CCCCC1 (stereo not given) | 48.4 µM (inactive)
39 | N=c1c(C(=O)NC2CCCC2)cc2c(=O)n3ccccc3nc2n1CCN1CCOCC1 | > 80 µM (inactive)
40 | Cc1ccc(/C=C2\SC(=S)N(CCC(=O)NNC(=O)c3ccncc3)C2=O)cc1 | > 80 µM (inactive)
41 | C=CCOc1ccc(/C=C2\SC(=S)N(CCC(=O)O)C2=O)cc1 | 0.63 µM
42 | O=C(Nc1cccc(S(=O)(=O)Nc2ccc(Cl)cc2)c1)c1ccc(Cl)nc1 | 41.6 µM (inactive)
43 | COc1ccc(C(=O)Nc2nnc(Cc3cccs3)s2)cc1OC | > 80 µM (inactive)
44 | CCc1cccc(NC(=O)c2ccc(CNc3c(N4CCCC4)c(=O)c3=O)cc2)c1 | > 80 µM (inactive)
45 | CCN(CC)S(=O)(=O)c1ccc(N2CCOCC2)c(NC(=O)c2[nH]c(C)c(C(C)=O)c2C)c1 | 27.3 µM (inactive)
46 | CC1=CC(C)(C)Nc2ccc(OC(=O)C(C)N3C(=O)c4ccccc4C3=O)cc21 (stereo not given) | 6.85 µM
47 | Cc1c(NC(=O)/C=C/c2cn(-c3ccccc3)nc2-c2ccccc2)c(=O)n(-c2ccccc2)n1C | > 80 µM (inactive)
48 | COc1ccc(-c2ccoc2)cc1[C@H]1[C@H]2C=CC[C@@H](C)[C@@H]2C(=O)N1Cc1ccccc1 | > 80 µM (inactive)

Row | Compound | IC50
49 | CCn1c(=O)c2cc(C(=O)NC(C)C)sc2c2ccccc21 | > 80 µM (inactive)
50 | Cc1c(CCC(=O)O)c(=O)oc2cc3oc4c(c3cc12)CCCC4 | 0.27 µM
51 | CN(C)S(=O)(=O)c1ccc(NC(=O)N2CCN(c3ccccc3)CC2)cc1 | > 80 µM (inactive)
52 | COc1ccc(C(=O)n2nc(-c3ccc(Cl)cc3)nc2N)cc1OC | 1.29 µM
53 | CCC(C)[C@H](N)c1nnc(SCC(=O)c2ccc(Cl)cc2)o1 (stereo not given in full) | > 80 µM (inactive)
54 | CC(C)(C)c1ccc(-c2noc(CCC(=O)NCC3CCCO3)n2)cc1 (stereo not given) | 0.21 µM
55 | Cc1ccc(-c2nn3c(C)nnc3c3ccccc23)cc1S(=O)(=O)NC(C)(C)CO | 29.6 µM (inactive)
56 | Cc1cc(C)c(CN2CCN(C(=O)Cn3cnc4c(NCc5ccccc5)ncnc43)CC2)c(C)c1 | 52.7 µM (inactive)
57 | C(=N\Nc1nc(Nc2ccccc2)nc(N2CCOCC2)n1)/c1c[nH]c2ccccc12 | < 0.16 µM
58 | COc1ccc(C(=O)Nc2ccc(OC)c([N+](=O)[O-])c2)cc1Br | > 80 µM (inactive)
59 | COC(=O)CSc1nnc(-c2sc3ccccc3c2Cl)o1 | 10.3 µM
60 | Cn1c(=O)cc(Nc2ccccc2)c2c(=O)n(-c3ccccc3)c(=O)n(-c3ccccc3)c21 | 5.6 µM
61 | CC(C)C[C@@H](N)c1nnc(SCC(=O)c2ccc(Cl)cc2)o1 | 47.6 µM (inactive)
62 | COc1ccc(/C=C2/SC(=S)N(CCCC(=O)Nc3ccc(O)cc3)C2=O)cc1OC | > 80 µM (inactive)
63 | O=C1NC[C@H](c2ccccc2)OC(=O)[C@@H](Cc2ccc(F)cc2)C/C=C\C[C@H]1CC(=O)N(CCO)Cc1ccccc1 | 9.87 µM
64 | Cc1cnc(NC(=O)Nc2ccc(Cl)cc2)s1 | > 80 µM (inactive)
65 | COc1cccc(-c2noc(CCC(=O)NCCc3ccccc3)n2)c1 | 5.65 µM
66 | Cc1ccc(/C=C2\SC(=S)N(CCCC(=O)NNC(=O)c3ccccc3O)C2=O)cc1 | 1.26 µM
67 | O=c1c(C=NCCCO)c(-c2ccccc2)[nH]n1-c1nc2ccccc2s1 | 9.07 µM
68 | CCCNC(=O)CSCc1nc(-c2ccc(SC)cc2)oc1C | 31.6 µM (inactive)
69 | O=C(Oc1cccc(/C=N/Nc2nc(Nc3ccccc3)nc(N3CCOCC3)n2)c1)c1ccco1 | 2.99 µM
70 | Cc1ccc(NC(=O)C2CCC(CNc3c(N4CCC(C)CC4)c(=O)c3=O)CC2)cc1F (stereo not given) | > 80 µM (inactive)
